{"source": "patent US20140018435A1", "about": "“Transdermal Delivery of Therapeutic Agents Using Poly (Amidoamine) Dendrimers” (UNIVERSITY OF ILLINOIS CHICAGO, priority 2012, published 2014)", "key": {"[1]": {"settings": "gel, cited from earlier work"}, "[2]": {"system": "breast cancer cell growth", "settings": "tissue culture; cited from earlier work"}, "[3]": {"system": "ER positive invasive breast cancer", "settings": "gel, 0.5 or 1 mg per breast per day; cited from earlier work"}, "[4]": {"settings": "24 hours dendrimer pre-treatment, then 5-FU in isopropyl myristate for 48 hrs; cited from earlier work"}, "[5]": {"settings": "after 24 hours of co-treatment; cited from earlier work"}, "[6]": {"settings": "at pH 74; cited from earlier work"}, "[7]": {"test": "Franz diffusion cell skin permeation/retention, porcine skin", "type": "in vitro ADME", "settings": "detection limit 9 ng/mL"}, "[8]": {"settings": "taken orally for five years; cited from earlier work"}}, "note": "Read-outs that look alike come from different tables or passages of the source.", "data": [{"compound": "4-hydroxytamoxifen [4-OHT]", "values": [{"measurement": "plasma level as fraction of those seen after 20 mg of oral TAM", "setting": "[1]; 0.5 mg per breast per day", "result": "approximately 1/30"}, {"measurement": "plasma levels of 4-OHT", "setting": "[1]; 0.5 mg per breast per day", "result": 0.05, "unit": "ng/mL"}, {"measurement": "plasma level as fraction of those seen after 20 mg of oral TAM", "setting": "[1]; 1 mg per breast per day", "result": "1/12"}, {"measurement": "plasma levels of 4-OHT", "setting": "[1]; 1 mg per breast per day", "result": 0.13, "unit": "ng/mL"}, {"measurement": "potency in suppressing breast cancer cell growth relative to TAM", "setting": "[2]", "result": "two-log greater potency"}, {"measurement": "reduction of Ki-67 labeling", "setting": "[3]", "result": "reduced the Ki-67 labeling to a similar degree as oral TAM"}]}, {"compound": "O=c1[nH]cc(F)c(=O)[nH]1", "note": "[5-FU, 5-fluorouracil]", "values": [{"measurement": "fold enhancement in permeability coefficient", "setting": "[4]", "result": "Up to 4 fold"}]}, {"compound": "O=C(O)c1cc(-c2ccc(F)cc2F)ccc1O", "note": "[Diflunisal]", "values": [{"measurement": "increase of accumulative permeated amount by complexing with PAMAM dendrimers, as compared to the free drug", "setting": "[5]", "result": 3.2, "unit": "times"}]}, {"compound": "CC(C(=O)O)c1cccc(C(=O)c2ccccc2)c1", "note": "(stereo not drawn) [Ketoprofen]", "values": [{"measurement": "increase of accumulative permeated amount by complexing with PAMAM dendrimers, as compared to the free drug", "setting": "[5]", "result": 3.4, "unit": "times"}]}, {"compound": "CCCCCCCC/C=C\\CCCCCCCC(=O)O", "note": "[OA, oleic acid]", "values": [{"measurement": "reported partition coefficient", "setting": "[6]", "result": 7.3}]}, {"compound": "CC/C(=C(\\c1ccc(O)cc1)c1ccc(OCCNC)cc1)c1ccccc1", "note": "[endoxifen]", "values": [{"measurement": "endoxifen collected from the receiver solution (RP-HPLC)", "setting": "[7]", "result": "< 9", "unit": "ng/mL"}]}, {"compound": "CC/C(=C(\\c1ccccc1)c1ccc(OCCN(C)C)cc1)c1ccccc1", "note": "[tamoxifen]", "values": [{"measurement": "reduction of breast cancer risk", "setting": "[8]", "result": "about 50%"}]}]}
